Reference: US12528802B2, “Heterocyclic compound” (Takeda Pharmaceutical Company Limited, priority 2019, dated 2026)
One block for each compound: values may come before it.

Legend:
[1] = test system: glucosylceramide (GlcCer); assay: Pharmacodynamic test using Gaucher's disease model mouse (glucosylceramide lowering effect); type: in vivo; settings: Gba D409V KI mice, two hours after last administration, ± standard deviation
Protocol: (§1) Pharmacodynamic Test Using Gaucher's Disease Model Mouse (Glucosylceramide and Glucosylsphingosine Lowering Effects)
(§2) Glucosylsphingosine (GlcSph) is known to be produced by deacylation of GlcCer and accumulated in tissues in patient with Gaucher's disease. Therefore, the GlcSph lowering effect of the compound of Example 119 due to the glucosylceramide synthase inhibitory effect was evaluated by measuring the GlcSph concentration in the tissue. For the experiment, Gba D409V KI mice, which were Gaucher's disease model mice in which GlcSph is accumulated, were purchased from Jackson Laboratory and used.
(§3) The test compound was prepared in a 0.5% methylcellulose suspension to a dose of 10 or 30 mg/kg, and orally administered. The administration was performed once a day for 2 months. Two hours after the last administration, the blood and cerebral cortex were collected, the plasma was prepared from the blood, and methanol is added to the cerebral cortex to prepare a homogenate. A mixed solution of isopropanol and ethanol was added to the obtained plasma and the methanol homogenate of the cerebral cortex, and the lipids were extracted. The GlcCer and GlcSph concentrations of the extracted samples were measured by LC/MS/MS.
(§4) The results of GlcCer were calculated from the following formula: (GlcCer concentration in the test compound administration group)/(GlcCer concentration in the 0.5% methylcellulose suspension administration group)×100. The results of GlcSph were calculated from the following formula: (GlcSph concentration in the test compound administration group)/(GlcSph concentration in the 0.5% methylcellulose suspension administration group)×100. The standard deviation values were also shown.

[2] = test system: Glucosylsphingosine (GlcSph); assay: Pharmacodynamic test using Gaucher's disease model mouse (glucosylsphingosine lowering effect); type: in vivo; settings: Gba D409V KI mice, two hours after last administration, ± standard deviation
Protocol: as §1, §2, §3, §4

[3] = test system: glucosylceramide (GlcCer); assay: Pharmacodynamic test using mouse (glucosylceramide lowering effect); type: in vivo; settings: C57BL/6J mice, 10 mg/kg oral, six hours after administration, ± standard deviation
Protocol: Pharmacodynamic Test Using Mouse (Glucosylceramide Lowering Effect)
For the experiment, C57BL/6J mice were purchased from CLEA Japan, Inc. and used. Glucosylceramide synthase is an enzyme that synthesizes glucosylceramide (GlcCer) from uridine diphosphate glucose and ceramide. Therefore, the glucosylceramide synthase inhibitory effect of the compound of Example 119 was evaluated by measuring the GlcCer concentration in the tissue.
as §3, with “10” for “10 or 30”, “Six” for “The administration was performed once a day for 2 months. Two”, “the” for “the last”, “GlcCer” for “GlcCer and GlcSph”
The results were calculated from the following formula: (GlcCer concentration in the test compound administration group)/(GlcCer concentration in the 0.5% methylcellulose suspension administration group)×100.
The standard deviation values were also shown.

[4] = molecular target: T1, glucosylceramide synthase (Homo sapiens, UniProt Q16739); assay: Glucosylceramide synthase (GCS) enzyme assay, microsome fraction, C8 glucosylceramide quantified by Rapidfire MS/MS; type: biochemical; settings: test compound 10 μM; 1.7 μM UDP-glucose, 3 μM C8 ceramide; room temperature 60 min; read-out: GCS enzyme inhibitory rate at 10 μM (%) (% of control)
T1 construct: made in house; host or cells: Expi293F cells (transient expression, pcDNA3.3-TOPO vector); microsome fraction used as enzyme source
T1 sequence (Q16739 1-394): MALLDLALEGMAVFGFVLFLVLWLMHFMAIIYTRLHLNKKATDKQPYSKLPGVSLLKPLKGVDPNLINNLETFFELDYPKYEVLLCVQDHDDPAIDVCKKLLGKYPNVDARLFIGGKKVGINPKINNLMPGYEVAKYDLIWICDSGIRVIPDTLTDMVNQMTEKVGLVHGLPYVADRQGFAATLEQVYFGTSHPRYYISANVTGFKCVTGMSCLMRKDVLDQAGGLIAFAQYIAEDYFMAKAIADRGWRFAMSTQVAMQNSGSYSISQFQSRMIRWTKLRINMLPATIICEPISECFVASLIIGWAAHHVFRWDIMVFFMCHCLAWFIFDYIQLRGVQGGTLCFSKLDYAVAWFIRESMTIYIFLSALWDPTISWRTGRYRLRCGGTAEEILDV
How it was run: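 Test compound, 10 μM final, was run against human GCS from transfected Expi293F microsome fractions, using substrate solution of 6 μM C8 ceramide (in DOPC liposomes) plus 3.4 μM UDP-glucose, pH 7.5 Tris buffer, 60 min, room temperature. Product C8 glucosylceramide measured by Rapidfire MS/MS against an internal standard, % inhibition referenced to no-enzyme and DMSO wells.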

[5] = 10 mg/kg oral once a day for 2 months, cerebral cortex
[6] = 10 mg/kg oral once a day for 2 months, plasma
[7] = 30 mg/kg oral once a day for 2 months, cerebral cortex
[8] = 30 mg/kg oral once a day for 2 months, plasma

inhibition at 10 µM [4]: 100%
SMILES: CC(C)(O)c1ccc(N2Cc3c(ccnc3-c3ccc(F)cc3OCC(F)(F)F)C2=O)cc1 [Example 119, 4-[4-fluoro-2-(2,2,2-trifluoroethoxy)phenyl]-2-[4-(2-hydroxypropan-2-yl)phenyl]-2,3-dihydro-1H-pyrrolo[3,4-c]pyridin-1-one]
GlcCer (% Control) cerebral cortex (10 mg/kg) [1, 5]: 58 ± 6 % Control
GlcCer (% Control) Plasma (10 mg/kg) [1, 6]: 40 ± 10 % Control
GlcCer (% Control) cerebral cortex (30 mg/kg) [1, 7]: 40 ± 7 % Control
GlcCer (% Control) Plasma (30 mg/kg) [1, 8]: 21 ± 4 % Control
GlcSph (% Control) cerebral cortex (10 mg/kg) [2, 5]: 73 ± 27 % Control
GlcSph (% Control) Plasma (10 mg/kg) [2, 6]: 58 ± 16 % Control
GlcSph (% Control) cerebral cortex (30 mg/kg) [2, 7]: 61 ± 20 % Control
GlcSph (% Control) Plasma (30 mg/kg) [2, 8]: 36 ± 9 % Control
GlcCer (% Control) cerebral cortex ([3]; cerebral cortex): 52 ± 7 % Control
GlcCer (% Control) plasma ([3]; plasma): 49 ± 14 % Control

inhibition at 10 µM [4]: 97%
SMILES: O=C1c2cc(C3CCOCC3)nc(-c3ccc(F)cc3OCC(F)(F)F)c2CN1c1ccc(F)cc1 [Example 382, 2-(4-fluorophenyl)-4-[4-fluoro-2-(2,2,2-trifluoroethoxy)phenyl]-6-(oxan-4-yl)-2,3-dihydro-1H-pyrrolo [3,4-c]pyridin-1-one]

inhibition at 10 µM [4]: 100%
SMILES: CC(C)(O)c1ccc(N2Cc3c(cc(C(C)(C)F)nc3-c3ccccc3OCC(F)(F)F)C2=O)cc1 [Example 384, 6-(2-fluoropropan-2-yl)-2-[4-(2-hydroxypropan-2-yl)phenyl]-4-[2-(2,2,2-trifluoroethoxy)phenyl]-2,3-dihydro-1H-pyrrolo[3,4-c]pyridin-1-one]

inhibition at 10 µM [4]: 99%
SMILES: CC(C)(F)c1cc2c(c(-c3ccc(F)cc3OCC(F)(F)F)n1)CN(c1ccc(F)cc1)C2=O [Example 385, 2-(4-fluorophenyl)-6-(2-fluoropropan-2-yl)-4-[4-fluoro-2-(2,2,2-trifluoroethoxy)phenyl]-2,3-dihydro-1H-pyrrolo[3,4-c]pyridin-1-one]

inhibition at 10 µM [4]: 100%
SMILES: CC(C)(C)c1cc2c(c(-c3ccccc3OCC(F)(F)F)n1)CN(c1ccc(C(C)(C)O)cc1)C2=O [Example 389, 6-tert-butyl-2-[4-(2-hydroxypropan-2-yl)phenyl]-4-[2-(2,2,2-trifluoroethoxy)phenyl]-2,3-dihydro-1H-pyrrolo[3,4-c]pyridin-1-one]
